# From US20060020110A1, “Synthetic peptides that bind to the hepatitis B virus core and E antigens” (priority 2000, published 2006)
# What was measured:
# [1] = tested on: mAb specific for HSV gG2; assay: gG2 mAb binding to fusion peptide on solid phase
# From the text: (§1) ID. […] The specificity exchangers provided in SEQ. ID. […] Similarly, the specificity exchangers provided in SEQ. ID.
# [2] = target: T1, HBcAg (Hepatitis B virus genotype D subtype ayw, UniProt P03146)
# Experimental: To evaluate the efficacy of the specificity exchangers described above, several binding assays using a mAb specific for HSV gG2 were conducted. In one assay, the various specificity exchangers were coated onto microtiterplates and were bound with the mAb specific for HSV gG2. […] ID. […] In another assay, HBcAg was coated onto microtiter plates, specificity exchanger was added (20 μg/well), and the binding of the mAb specific for HSV gG2 was determined. […] ID. […] In another binding assay, HBeAg was coated onto microtiter plates, specificity exchanger was added (20 μg/well), and the binding of the mAb specific for HSV gG2 was determined. […] ID. […] The characterization assays used to evaluate binding partners can also be used and/or modified for the analysis of the specificity exchangers.
# [3] = target: T2, HBeAg (Hepatitis B virus genotype D subtype ayw, UniProt P0C573); assay: Redirection of HSV gG2 mAb to HBeAg on solid phase by fusion peptide in solution; type: binding
# T2 construct: containing nine residues of pre-core and the 150 first residues of HBcAg; made in house
# T2 sequence (P0C573 21-179): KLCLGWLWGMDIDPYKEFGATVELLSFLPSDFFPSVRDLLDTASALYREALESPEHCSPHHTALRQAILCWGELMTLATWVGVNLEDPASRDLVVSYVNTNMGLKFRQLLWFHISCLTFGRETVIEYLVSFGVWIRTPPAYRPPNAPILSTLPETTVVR
# From the text: as §1
# [4] = target: T1, HBcAg; remark: listed apart in the source
# Experimental: Accordingly, the assay was conducted by mixing the antibody to be tested with the appropriate antigen and allowing binding to occur overnight. Subsequently, rabbit complement, which is consumed if the antibody binds the antigen and the complement, was added. To determine the amount of residual complement in the mixture, sheep erythrocytes and an antibody to sheep erythrocytes was added.
# [5] = target: T3, serum HBeAg (Hepatitis B virus genotype D subtype ayw, UniProt P0C573); assay: In vivo aggregation of serum HBeAg in HBeAg-transgenic mice; conditions: second group of experiments, i.p., final volume 0.5 ml
# T3 construct: two HBeAg-transgenic mice; from tissue; host or cells: serum of HBeAg-transgenic mice (from Dr. David R Milich, The Scripps Research Institute)
# T3 sequence (P0C573 20-183): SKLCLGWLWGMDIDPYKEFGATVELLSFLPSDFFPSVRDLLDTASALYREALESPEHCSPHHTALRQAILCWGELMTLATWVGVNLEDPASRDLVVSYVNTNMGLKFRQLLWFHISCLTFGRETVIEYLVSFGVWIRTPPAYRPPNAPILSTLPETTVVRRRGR
# Experimental: By using an animal model of HBV infection, the therapeutic efficacy of a specificity exchanger directed to HBV was determined. In a first group of experiments, two HBeAg-transgenic mice (obtained from Dr. David R Milich, The Scripps Research Institute, La Jolla, Calif.) were injected ip. with 500 μl of undiluted hybridoma supernatants. The mice were then bled on day zero, two, six and nine post-injection. Sera were then tested for the change in serum HBeAg levels as determined by EIA (Sorin Biomedica, Saluggia, Italy).
# [6] = tested on: B cell - mediated antigen presentation of HBcAg to experienced T cells; assay: Inhibition of B cell-mediated antigen presentation of HBcAg to experienced T cells; type: cell-based, Balb/c mice
# Experimental: A characterization assay that was used to evaluate the ability of a binding partner to modulate a host immune system response to HBV was conducted as follows. Groups of Balb/c mice were immunized subcutaneously with 20 μg HBcAg. Ten days later, draining lymph nodes were harvested and experienced CD4^+ T cells were purified using anti-CD4 coated magnetic beads (Dynal A S, Oslo, Norway) according to the manufacturers instructions. Naïve B cells were obtained from syngeneic mice, which had not been immunized. These B cells were used as antigen presenting cells in the characterization assay.
# The ability of the different mAbs and peptides to block B cell uptake and antigen presentation of HBcAg-peptides to HBcAg-specific CD4+ T cells was then tested in vitro. The cell populations were mixed at a B/T cell ratio of 1:5 and added at a final concentration of approximately 2.5×10^5 to 5.0×10^5 cells per well in a 96 well microplate. Approximately, 20 μg of HBcAg was preincubated with the binding partner. The binding partner mixtures were then added to the cells and the plates were incubated for 26 to 96 hours at 37° C. The effect of the binding partners on T cell proliferation was determined by monitoring [^3H] thymidine incorporation.
# [7] = fusion peptide in solution 20 μg/well
# [8] = specificity exchanger 20 μg/well
# T1 sequence (P03146 whole entry): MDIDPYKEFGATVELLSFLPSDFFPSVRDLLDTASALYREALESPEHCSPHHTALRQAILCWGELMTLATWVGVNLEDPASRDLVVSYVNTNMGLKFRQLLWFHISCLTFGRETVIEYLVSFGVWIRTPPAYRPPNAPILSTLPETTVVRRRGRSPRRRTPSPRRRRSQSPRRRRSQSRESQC
sequence,measurement,setting,value
VKLSCKASGYIFTSHRGGPEE [SEQ. ID. No. 74],gG2 mAb binding to indicated antigen on solid phase: fusion peptide,[1]; no addition of fusion peptide in solution,0.884
same,Binding of mAb specific for HSV gG2 to coated specificity exchanger (in words),[1]; specificity exchanger coated onto microtiterplates,appreciably bound the mAb
same,gG2 mAb binding to indicated antigen on solid phase: HBcAg,[2]; [7],1.462
same,Binding to immobilized HBcAg allowing binding of HSV gG2 mAb (in words),[2]; [8],appreciably bound the immobilized HBcAg
same,gG2 mAb binding to indicated antigen on solid phase: HBeAg,[3]; [7],1.727
same,Binding to immobilized HBeAg allowing binding of HSV gG2 mAb (in words),[3]; [8],appreciably bound the immobilized HBeAg
same,Complement binding of mAb-specificity exchanger-HBcAg complex (in words),[4]; HSV mAb and specificity exchanger at equimolar ratios,able to bind complement
same,Ability to inhibit binding of mAb 4-2 to HBcAg (in words),[4]; complement binding assay,appreciably inhibited the binding of mAb 4-2 to HBcAg
same,Ability to inhibit binding of mAb 9C8 to HBcAg (in words),[4]; complement binding assay,unable to compete away bound mAb 9C8
same,Fold change in serum HBeAg levels as determined by EIA in HBeAg-Tg mice,[5]; day 0 from injection,1
same,Fold change in serum HBeAg levels as determined by EIA in HBeAg-Tg mice,[5]; day 1 from injection,1.5
same,Fold change in serum HBeAg levels as determined by EIA in HBeAg-Tg mice,[5]; day 3 from injection,2.3
same,Fold change in serum HBeAg levels as determined by EIA in HBeAg-Tg mice,[5]; day 6 from injection,2.3
same,Fold change in serum HBeAg levels as determined by EIA in HBeAg-Tg mice,[5]; day 9 from injection,3.3
same,Inhibition of B cell mediated antigen presentation of HBcAg to specific CD4+ T cells (in words),[6],inhibited B cell mediated antigen presentation
same,"cpm ([3H] thymidine incorporation, T cell proliferation)","[6]; T + B cells, 20 μg HBcAg preincubated with inhibitor, positive control 573, background 110",345 cpm
same,% inhibition of APC,"[6]; T + B cells, 20 μg HBcAg, calculated from cpm versus positive control and background proliferation",49%
